Results reported in patent US11472795B2, “1H-indazole-3-carboxamide compounds as glycogen synthase kinase 3 beta inhibitors” (AZIENDE CHIMICHE RIUNITE ANGELINI FRANCESCO—A.C.R.A.F. …, priority 2018, dated 2022).
pIC50: −log10 of the molar value.

Assays:
human GSK-3β = human GSK-3β (Homo sapiens (Human), UniProt P49841); assay: Test I - Activity on human GSK-3β (LANCE substrate phosphorylation); format: biochemical; settings: human recombinant GSK-3β, 90 minutes at 22° C., five concentrations 10 μM to 1 nM, duplicate; read-out: GSK-33 IC50
human GSK-3β, sequence (P49841 whole entry): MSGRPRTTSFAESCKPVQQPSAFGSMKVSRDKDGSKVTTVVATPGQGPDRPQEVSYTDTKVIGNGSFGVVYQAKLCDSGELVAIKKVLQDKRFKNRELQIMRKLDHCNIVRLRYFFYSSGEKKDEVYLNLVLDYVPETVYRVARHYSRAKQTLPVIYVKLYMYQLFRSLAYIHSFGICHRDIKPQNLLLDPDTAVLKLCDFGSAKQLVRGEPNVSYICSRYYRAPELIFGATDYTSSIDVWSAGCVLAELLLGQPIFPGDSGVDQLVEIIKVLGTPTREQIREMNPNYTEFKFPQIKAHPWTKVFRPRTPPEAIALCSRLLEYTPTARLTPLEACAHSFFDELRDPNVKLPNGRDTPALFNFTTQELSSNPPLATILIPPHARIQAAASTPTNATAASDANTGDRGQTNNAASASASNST
Procedure: Human recombinant enzyme GSK-3β was incubated for 90 minutes at 22° C. in the presence of compounds or vehicle in a reaction buffer containing ATP plus 100 nM unphosphorylated specific substrate peptide (Ulight-[…]-amide). Substrate phosphorylation was measured by LANCE technology (PerkinElmer, CT, USA).

hERG ion channel = hERG ion channel (Homo sapiens (Human), UniProt Q12809)
hERG ion channel, sequence (Q12809 whole entry): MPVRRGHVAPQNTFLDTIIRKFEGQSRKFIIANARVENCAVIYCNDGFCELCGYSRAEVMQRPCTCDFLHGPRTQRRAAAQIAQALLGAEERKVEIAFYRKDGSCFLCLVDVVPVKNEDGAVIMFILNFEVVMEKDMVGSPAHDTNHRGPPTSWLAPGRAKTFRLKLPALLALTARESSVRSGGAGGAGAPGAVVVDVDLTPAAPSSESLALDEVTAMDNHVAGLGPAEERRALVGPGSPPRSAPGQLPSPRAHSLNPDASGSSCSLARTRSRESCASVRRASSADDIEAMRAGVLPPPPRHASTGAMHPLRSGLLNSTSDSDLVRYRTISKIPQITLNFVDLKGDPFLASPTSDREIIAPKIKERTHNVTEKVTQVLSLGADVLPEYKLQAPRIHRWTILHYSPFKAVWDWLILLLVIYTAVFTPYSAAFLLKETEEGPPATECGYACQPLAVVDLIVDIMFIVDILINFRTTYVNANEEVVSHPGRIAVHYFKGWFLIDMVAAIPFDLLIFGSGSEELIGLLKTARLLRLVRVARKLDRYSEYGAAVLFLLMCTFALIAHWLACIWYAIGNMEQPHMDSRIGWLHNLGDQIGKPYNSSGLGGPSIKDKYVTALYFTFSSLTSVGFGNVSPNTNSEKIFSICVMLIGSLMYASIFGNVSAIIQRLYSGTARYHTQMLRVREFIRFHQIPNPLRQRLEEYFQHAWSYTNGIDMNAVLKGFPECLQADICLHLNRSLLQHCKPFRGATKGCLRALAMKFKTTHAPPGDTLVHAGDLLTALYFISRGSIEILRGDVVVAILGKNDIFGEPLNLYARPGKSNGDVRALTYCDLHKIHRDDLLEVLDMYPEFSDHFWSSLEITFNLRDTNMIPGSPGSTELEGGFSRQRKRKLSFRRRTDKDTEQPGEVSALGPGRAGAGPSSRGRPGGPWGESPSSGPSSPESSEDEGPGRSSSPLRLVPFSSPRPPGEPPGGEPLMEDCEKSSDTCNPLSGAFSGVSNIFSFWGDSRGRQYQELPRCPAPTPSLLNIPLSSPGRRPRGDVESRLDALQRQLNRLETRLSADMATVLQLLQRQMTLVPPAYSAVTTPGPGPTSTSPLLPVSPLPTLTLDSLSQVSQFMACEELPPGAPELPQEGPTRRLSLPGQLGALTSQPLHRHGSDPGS
Procedure: (2006), Expert Opin. Ther. Targets, 10 (2): 230-241 using the recombinant human cell line CHO-K1, which stably expresses the hERG ion channel.
The degree of inhibition (%) was obtained by measuring the tail current amplitude, which is induced by a one second test pulse to −40 mV after a two second pulse to +20 mV, before and after drug incubation (the difference current was normalized to control and multiplied by 100 to obtain the percent of inhibition). […] The concentration response relationship of each compound was constructed from the percentage reductions of current amplitude by sequential concentrations.

Row | SMILES | pIC50 (human GSK-3β) | pIC50 (hERG ion channel) | hERG/GSK-3β Ratio (hERG ion channel)
1 | CC(C)Oc1cncc(-c2ccc3[nH]nc(C(=O)NCC4CCOC4)c3c2)c1 (centres unmarked) [Compound 4, 5-(5-Isopropoxypyridin-3-yl)-N-((tetrahydrofuran-3-yl)methyl)-1H-indazole-3-carboxamide] | 7.77 | 5.21 | 365
2 | COCc1cncc(-c2ccc3[nH]nc(C(=O)NCC4CCS(=O)(=O)C4)c3c2)c1 (centres unmarked) [Compound 5] | 7.80 | < 4.00 | –
3 | O=C(NC1CCS(=O)(=O)C1)c1n[nH]c2ccc(-c3cncc(CO)c3)cc12 (centres unmarked) [Compound 6, 5-(5-(Hydroxymethyl)pyridin-3-yl)-N-(1,1-dioxidotetrahydrothiophen-3-yl)-1H-indazole-3-carboxamide] | 7.77 | < 4.00 | –
4 | CC(C)Oc1cncc(-c2ccc3[nH]nc(C(=O)NCC4CCS(=O)(=O)C4)c3c2)c1 (centres unmarked) [Compound 11] | 7.92 | 5.27 | 450
5 | O=C(NCC1CCCCO1)c1n[nH]c2ccc(-c3cccc(F)c3F)cc12 (centres unmarked) [Compound 14, 5-(2,3-Difluorophenyl)-N-((tetrahydro-2H-pyran-2-yl)methyl)-1H-indazole-3-carboxamide] | 6.36 | < 4.00 | –
6 | CN(C)Cc1cncc(-c2ccc3[nH]nc(C(=O)NCC4CCOCC4)c3c2)c1 [Compound 16, 5-(5-((Dimethylamino)methyl)pyridin-3-yl)-N-((tetrahydro-2H-pyran-4-yl)methyl)-1H-indazole-3-carboxamide] | 7.64 | 4.36 | 1,913
7 | O=C(NCC1CCOCC1)c1n[nH]c2ccc(-c3cncc(CN4CCCC4)c3)cc12 [Compound 17, 5-(5-(Pyrrolidin-1-ylmethyl)pyridin-3-yl)-N-((tetrahydro-2H-pyran-4-yl)methyl)-1H-indazole-3-carboxamide] | 7.77 | 5.17 | 394
8 | O=C(NCC1CCOCC1)c1n[nH]c2ccc(-c3cnccc3CN3CCCC3)cc12 [Compound 19, 5-(4-(Pyrrolidin-1-ylmethyl)pyridin-3-yl)-N-((tetrahydro-2H-pyran-4-yl)methyl)-1H-indazole-3-carboxamide] | 6.85 | 4.80 | 114
9 | O=C(NCC1CCOCC1)c1n[nH]c2ccc(-c3cnccc3CN3CCOCC3)cc12 [Compound 20, 5-(4-(Morpholinomethyl)pyridin-3-yl)-N-((tetrahydro-2H-pyran-4-yl)methyl)-1H-indazole-3-carboxamide carboxamide] | 7.73 | 4.34 | 2,487
10 | CN(C)Cc1ccncc1-c1ccc2[nH]nc(C(=O)NCC3CCOCC3)c2c1 [Compound 21, 5-(4-((Dimethylamino)methyl)pyridin-3-yl)-N-((tetrahydro-2H-pyran-4-yl)methyl)-1H-indazole-3-carboxamide] | 6.66 | 4.40 | 182
11 | O=C(NCC1CCOCC1)c1n[nH]c2ccc(-c3cnccc3CN3CCNCC3)cc12 [Compound 24, 5-(4-(piperazin-1-ylmethyl)pyridin-3-yl)-N-((tetrahydro-2H-pyran-4-yl)methyl)-1H-indazole-3-carboxamide] | 6.92 | 4.03 | 782
12 | O=C(NCC1CCOCC1)c1n[nH]c2ccc(-c3cncc(CN4CCOCC4)c3)cc12 [Compound 27, 5-(5-(morpholinomethyl)pyridin-3-yl)-N-((tetrahydro-2H-pyran-4-yl)methyl)-1H-indazole-3-carboxamide] | 7.89 | 5.46 | 269
13 | CNCc1cncc(-c2ccc3[nH]nc(C(=O)NCC4CCOCC4)c3c2)c1 [Compound 28, 5-(5-((methylamino)methyl)pyridin-3-yl)-N-((tetrahydro-2H-pyran-4-yl)methyl)-1H-indazole-3-carboxamide] | 8.22 | < 4.00 | –
